Test results as given in US20170209489A1, “FAST ACTING INHIBITOR OF GASTRIC ACID SECRETION WITH ENHANCED ACTIVITY” (YALE UNIVERSITY, priority 2014, published 2017).
Read-outs that look alike come from different tables or passages of the source.

Columns and labels:
isolated gastric glands = conditions: for reduction in secretagogue induced proton secretion (proton extrusion, acid production): Carbachol 200 μM, means from 5 rats; for inhibitory effect on secretagogue induced acid secretion, in words: rat gastric glands
Method: (§1) In this series of studies we used glands from rats that have been fasted for 18 hours with free access to water to reduce basal acid secretion to zero. Following isolation the glands were placed in a perfusion chamber that was maintained at 37° C. Prior to exposure to the Zn solution the glands were loaded with the Fluorescent reagent BCECF to monitor intracellular pH, this is based on technology we have used in the lab. In these studies we stimulated acid secretion by exposing the individual glands to 200 μM Carbachol a well characterized activator of acid secretion. In parallel to these studies (Control glands) we exposed glands from the same animal to a solution that contained ZnSO4.7H2O. […] In subsequent studies we then reduced the concentration of ZnSO4.7H2O by an order of magnitude ([…]) and repeated the study. For each dose used a minimum of 5 animals was used. […] We reduced to a concentration of 0.03 μM.

isolated human glands = conditions: for inhibitory effect on secretagogue induced acid secretion, in words: human gastric glands
Method: as §1
Note that doses of 300 μM and 3 μM were used. […] All data are the means from 5 separate human samples.

isolated stomachs = conditions: simultaneous with secretagogue, 15 minute exposure, fasted rats
Method: We took age and sex matched animals for these studies. The stomach was excised and perfused with 0.5 ml of nonbuffered saline solution in vitro with a solution of either 200 μM Carbachol or ZnSO4.7H2O+200 μM Carbachol following a 15 minute perfusion time we collected the effluent from the stomach and measure intragastric pH in this fluid following a protocol that we have used in the past.

isolated glands = system: isolated glands
Method: In this series of studies Rats were given free access to water and normal rat chow for a period of 5 days. In one group 30 μM ZnSO4.7H2O was added to the drinking water so that the animals are getting a constant exposure of ZnSO4.7H2O. At the end of the 5 day period the animals were sacrificed and the stomach removed. We examined how these glands performed to addition of a secretagogue as previously defined in Protocol 1. In the second group we repeated the study giving 3 μM ZnSO4.7H2O for the 5 day period while allowing normal access to food and water.

[1] = listed as zinc sulfate heptahydate

For `O.O.O.O.O.O.O.O=S(=O)([O-])[O-].[Zn+2]` [zinc sulfate heptahydrate], the “inhibiting acid secretion in the stomach” value (isolated gastric glands; about 0.3 μM to about 300 μM, more often about 3 μM to about 30 μM) was “almost complete inhibition”, the “reduction in secretagogue induced proton secretion (proton extrusion, acid production)” value (“reduction” below) (isolated gastric glands; dose of 0.03 μM) was “p<0.03 significant reduction” and the “reduction” value (isolated gastric glands; dose of 0.03 μM, listed as ZnSO4.7H2O) was “modest yet significant inhibition of acid secretion (p<0.03)”. The “reduction” value (isolated gastric glands; doses from 300 to 0.3 μM) was “significant p<0.0001 reduction”, the “reduction” value (isolated gastric glands; doses from 300 to 0.3 μM, listed as ZnSO4.7H2O) was “highly significant inhibition of proton extrusion (p<0.0001)” and the “inhibitory effect on secretagogue induced acid secretion, in words” value (“inhibitory effect” for short) (isolated gastric glands; listed as ZnSO4.7H2O) was “potent inhibitor”. The “inhibitory effect” value (isolated gastric glands; [1]) was “abolishing the activity of the gastric H^+,K^+-ATPase”, the “inhibition of proton extrusion (acid secretion)” value (isolated human glands; doses of 300 μM and 3 μM, Carbachol, means from 5 human samples) was “highly significant inhibition of proton extrusion (p<0.0001)” and the “inhibitory effect” value (isolated human glands; listed as ZnSO4.7H2O) was “potent inhibitor”. For the same compound, the “inhibitory effect” value (isolated human glands; [1]) was “abolishing the activity of the gastric H^+,K^+-ATPase”, the “elevation in gastric pH” value (isolated stomachs; 3 μM, listed as ZnSO4Heptahydrate) was at least 1 pH unit and the “elevation in gastric pH” value (isolated stomachs; 3 μM, listed as ZnSO4.7H2O) was 1 pH unit. The “elevation in gastric pH” value (isolated stomachs; 30 μM, listed as ZnSO4Heptahydrate) was at least 1 pH unit, the “elevation in gastric pH” value (isolated stomachs; 30 μM, listed as ZnSO4.7H2O) was 1 pH unit and the “basal acid secretion in the gland” value (isolated glands; 3 μM in drinking water for 7 days, versus blank water) was “slightly higher than blank water”. The “Carbachol (secretagogue) induced acid secretion” value (isolated glands; 3 μM in drinking water for 7 days, versus matched controls) was “marked suppression”, the “basal acid secretion in the gland” value (isolated glands; 30 μM, 1 week ad lib access) was “no basal acid secretion” and the “secretagogue (carbachol) induced acid secretion in the gland” value (isolated glands; 30 μM, 1 week ad lib access) was “no effect”.
